Laboratory results taken from patent US20160145242A1, “PHENYLIMIDAZOLE DERIVATIVE, AND THERAPEUTIC MEDICINE OR PREVENTIVE MEDICINE FOR INFLAMMATORY DISEASE, ETC” (NIPPON SODA CO., LTD., priority 2013, published 2016).

System: mouse model of retinal light disorders
Test: Retinal light disorder model test (ONL thickness)
Format: in vivo
Conditions: BALB/cCr male mouse, 30 mg/kg oral 30 minutes before 2 hours white light, eyes taken after 4 days
Protocol: (Retinal Light Disorder Model Test)
The usefulness (improvement rate with respect to retinal light disorders) of the compound of the invention was evaluated using a mouse model of retinal light disorders, generally used as a model of retinal light disorders, (Investigative Ophthalmology & Visual Science, 2002; vol. 43; pp. 1162 to 1167). Here, the improvement rate with respect to the retinal light disorders was calculated based on the thickness of an outer nuclear layer (hereinafter, referred to as “ONL”), which is strongly interfered especially by light application among a retinal cell layers, in a tissue specimen of a perpendicular surface of an eyeball.
Moreover, in the present test, the ONL of a light application group to which only a base was administered was degraded to 30% to 50% of a normal light group.
A test compound was dissolved or suspended in a solvent (1% (w/v) methyl cellulose aqueous solution) and then an administration liquid was prepared so that the test compound to be 30 mg/kg body weight. The dose was set to 10 ml/kg body weight.
A 5-week-old BALB/cCr-based male mouse (weight of approximately 20 g) was bred in a dark place for 48 hours. Subsequently, the test compound administration liquid was orally administered (30 mg/kg). After 30 minutes, […] of white light was continuously applied to the mouse for 2 hours. Next, the mouse was bred in a breeding room with 50 lux of light for 4 days.
An anesthetic (secobarbital sodium) was intraperitoneally administered to anesthetize the mouse and then the mouse was exsanguinated to die. The top portion of the right eyeball was marked with a thread and the eyeball was extracted. […]
The ONL thickness in the tissue specimen was measured for every 200 μm between the optic nerve papilla to where upwardly spaced by 1 mm from the optic nerve papilla using Lumina Vision. The area (AUC) from the optic nerve papilla to where upwardly spaced by 1 mm from the optic papilla in the graph was calculated as an ONL area. […]

CC(=O)N1CCN(c2ccc(N)c(-n3ccnc3)c2)CC1 [Compound 1-1, 4-acetyl-1-(4-amino-3-imidazole-1-yl-phenyl)piperazine]
ONL thickness improvement rate: 100.6%
